Assay [1] concerns the target Cannabinoid receptor 1 (Rattus norvegicus) (UniProt P20272). Put plainly: (§1) […] [3H]WIN-55212 binding to Cannabinoid receptor 1 in rat cerebellum membranes. Format: cell membranes. Particulars: Membrane, concentration not given here.
The species entered for another assay is Mus musculus. Kind of assay: Concentration required to inhibit electrically induced contractions in isolated mouse vas deferens preparation in vitro. Format: functional.
Another assay has as its target Cannabinoid receptor 1 (Rattus norvegicus, UniProt P20272). Described as §1. Format: cell membranes, Membrane.

Sequence of Cannabinoid receptor 1 (Rattus norvegicus) (P20272 whole entry): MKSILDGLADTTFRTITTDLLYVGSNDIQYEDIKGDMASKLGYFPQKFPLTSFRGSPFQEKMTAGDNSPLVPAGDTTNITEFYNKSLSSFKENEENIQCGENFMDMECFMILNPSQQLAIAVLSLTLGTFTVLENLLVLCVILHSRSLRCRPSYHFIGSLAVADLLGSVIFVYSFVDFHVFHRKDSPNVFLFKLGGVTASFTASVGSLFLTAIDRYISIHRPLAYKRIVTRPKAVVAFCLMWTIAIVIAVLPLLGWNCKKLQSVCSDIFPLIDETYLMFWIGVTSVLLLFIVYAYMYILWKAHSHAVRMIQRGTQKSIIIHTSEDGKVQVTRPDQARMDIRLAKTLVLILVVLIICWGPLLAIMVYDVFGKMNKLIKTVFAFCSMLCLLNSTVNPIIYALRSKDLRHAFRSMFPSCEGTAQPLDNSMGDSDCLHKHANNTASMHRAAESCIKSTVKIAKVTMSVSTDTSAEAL
Sequence of Cannabinoid receptor 1 (P20272 whole entry): as above

As to `COc1ccc(C(=O)c2c(C)n(CCN(C)C)c3ccccc23)cc1`, the inhibition in assay [1] turned out to be 11%. Still for that read-out and setting: with `COc1ccc(C(=O)c2c(O)n(CCN3CCOCC3)c3ccccc23)cc1` the figure was 1%; with `Cc1c(C(=O)c2cccc(C#N)c2)c2ccccc2n1CCN1CCOCC1`, 1%. Same read-out and setting: the figure for `COc1ccc(C(=O)c2c(C)n(CCN3CCS(=O)(=O)CC3)c3ccccc23)cc1` is -4%; for `Cc1c(C(=O)c2ccc(C(C)(C)C)cc2)c2ccccc2n1CCN1CCOCC1` it is 56%; for `Cc1c(C(=O)c2cccc3ccccc23)c2ccccc2n1C(C)CN1CCOCC1` (racemic; form 1) it is 79%.

Turning to `COc1ccc(C(=O)c2c(C)n(CCN3CCOCC3)c3ccccc23)cc1` [PRAVADOLINE], the IC50 in the assay listed under Mus musculus (Mus musculus) came out at 0.319 µM; at Cannabinoid receptor 1 it was 3.15 µM. In the case of `Cc1c(C(=O)c2ccc(C#N)c3ccccc23)c2ccccc2n1CCN1CCOCC1`, the IC50 in the assay filed under Mus musculus (Mus musculus) and on Cannabinoid receptor 1 was 0.015 µM in each case.

Consider `O=C(c1cccc2occc12)c1cn(CCN2CCOCC2)c2ccccc12`, for which the IC50 in the assay listed under Mus musculus (Mus musculus) came out at 0.0077 µM; on Cannabinoid receptor 1 it was 0.024 µM. In the case of `Cc1ccc(C(=O)c2cn(CCN3CCOCC3)c3ccccc23)c2ccccc12`, the IC50 came out at 0.0036 µM in the assay filed under Mus musculus (Mus musculus) and 0.0028 µM on Cannabinoid receptor 1. For the compound `Cc1c(C(=O)c2ccccc2C#N)c2ccccc2n1CCN1CCOCC1`, the inhibition in assay [1] turned out to be 0%. Consider `COc1ccc(C(=O)c2c(C#N)n(CCN3CCOCC3)c3ccccc23)cc1`, for which the inhibition in assay [1] was determined as 3%. Same read-out and setting: with `COc1ccc(C(=O)c2c(F)n(CCN3CCOCC3)c3ccccc23)cc1` the figure was 7%.

In the case of `Cc1c(C(=O)c2cccc3ccccc23)c2ccccc2n1CCN1CCOCC1C` (stereo not given), the IC50 was determined as 0.207 µM in the assay listed under Mus musculus (Mus musculus) and 0.384 µM at Cannabinoid receptor 1.

As for `Cc1c(C(=O)c2ccc(F)cc2)c2ccccc2n1CCN1CCOCC1`, the inhibition in assay [1] turned out to be 12%. For the compound `Cc1ccc2c(C(=O)c3cccc4ccccc34)c(C)n(CCN3CCOCC3)c2c1`, the half-maximal inhibitory concentration (IC50) was determined as 0.015 µM in the assay listed under Mus musculus (Mus musculus) and 0.011 µM at Cannabinoid receptor 1. On the same counts, the results for `O=C(c1cn(CCN2CCOCC2)c2ccccc12)C1CCCc2ccccc21` (stereo not given) are 0.011 µM and 0.038 µM. As to `Cc1ccc(C(=O)c2c(C)n(CCN3CCOCC3)c3ccccc23)cc1`, the figures for the IC50 in the assay filed under Mus musculus (Mus musculus) and at Cannabinoid receptor 1 were 0.442 µM and 1.77 µM, respectively.

As for `Cc1c(C(=O)c2cccc3ccccc23)c2ccccc2n1CCCN1CCOCC1`, the IC50 in the assay listed under Mus musculus (Mus musculus) is 0.112 µM; on Cannabinoid receptor 1, 0.15 µM. For `O=C(c1cccc2ccccc12)c1cn(CCN2CCOCC2)c2ccccc12`, in that order: 0.0063 µM and 0.0078 µM. For `COc1ccc(C(=O)c2c(C)n(CCN3CCOCC3)c3c(F)cccc23)cc1`, in that order: 0.073 µM and 0.571 µM. For `CCc1ccc(C(=O)c2c(C)n(CCN3CCOCC3)c3ccccc23)cc1`, in that order: 0.071 µM and 0.306 µM.

Take `O=C(c1cccc2ccccc12)c1cn(CCN2CCOCC2)c2ccc(F)cc12`: the figures for the IC50 in the assay listed under Mus musculus (Mus musculus) and at Cannabinoid receptor 1 were 0.0073 µM and 0.035 µM, respectively. `Cc1c(C(=O)c2cccc3ccccc23)c2ccccc2n1CCN1CCOCC1`: the figures for the IC50 in the assay listed under Mus musculus (Mus musculus) and at Cannabinoid receptor 1 were 0.015 µM and 0.019 µM, respectively. As for `Cc1c(C(=O)c2cccc3cccnc23)c2ccccc2n1CCN1CCOCC1`, the IC50 in the assay listed under Mus musculus (Mus musculus) is 0.129 µM; at Cannabinoid receptor 1, 0.274 µM. Consider `COc1ccc(C(=O)c2c(C)n(CCN3CCOCC3)c3cc(OC)ccc23)cc1`, for which the IC50 in the assay filed under Mus musculus (Mus musculus) is above 10 µM; on Cannabinoid receptor 1 it was 1.45 µM. For the compound `CC(CN1CCOCC1)n1cc(C(=O)c2cccc3ccccc23)c2ccccc21` (stereo in doubt; -106), the IC50 was 0.012 µM in the assay filed under Mus musculus and 0.033 µM at Cannabinoid receptor 1.

Take `COc1ccc(C(=O)c2c(C)n(CCN3CCOCC3)c3ccccc23)c2ccccc12`: the IC50 in the assay filed under Mus musculus (Mus musculus) is 0.023 µM; on Cannabinoid receptor 1, 0.055 µM.

For `Cc1c(C(=O)c2ccc3occc3c2)c2ccccc2n1CCN1CCOCC1`, the IC50 in the assay listed under Mus musculus (Mus musculus) worked out at 0.126 µM; on Cannabinoid receptor 1, 0.357 µM. With `CC(CN1CCOCC1)n1cc(C(=O)c2cccc3ccccc23)c2ccccc21` (racemic; form 1), the IC50 is 0.06 µM in the assay listed under Mus musculus and 0.114 µM at Cannabinoid receptor 1.

(Values after ChEMBL document CHEMBL1128746, “Aminoalkylindoles: structure-activity relationships of novel cannabinoid mimetics” (J Med Chem, 1995).)
